Measured values from paper PMC13596996 (Cell, 2026).

System: GABAA receptor
Test: whole-cell voltage-clamp, dose-response, blocked by gabazine
Parameters: species or system Mus musculus

EC50: 134 µM
SMILES: [H]/N=C(/N)NCC(=O)O [GAA, guanidinoacetate]
